Test results as given in PMC10212518 (Biochemical Journal, 2023).
Where two headings read alike, the source gives them in different places.

Experiments:
[1] = test system: RIPK1 phosphorylation in MDF cells; assay: Cellular phosphorylation assay, Western blot of phospho-RIPK1; type: cell-based, mouse; settings: 10 µM, 2 h pre-treatment; TSI 2 h; wild-type MDF cells
Description: WT, Ripk1^−/−Mlkl^−/− and Ripk3^−/− MDF cell lines were seeded at 3.0 × 10^5 cells in 1 ml per well in 12-well plates (Corning, cat #3512) and allowed to settle for 24 h at 37°C 10% CO2. WT cells were treated with DMSO alone or compounds (1 µM or 10 µM), as specified, for 2 h. Ripk1^−/−Mlkl^−/− and Ripk3^−/− cells were left untreated. Cells were stimulated with TSI to induce phosphorylation of RIPK1 and RIPK3, or left unstimulated, for 2 h. For all compounds and reagents, 1 µl of 1000× stocks were used. Cells were harvested, washed with 500 µl DPBS (Gibco) and lysed in 25 µl of ice-cold RIPA buffer (25 mM Tris–HCl pH 7.5, 150 mM NaCl, 1% v/v Nonidet P-40, 1% w/v Na Deoxycholate, 0.1% w/v SDS) containing cOmplete EDTA-free Protease Inhibitor Cocktail (Roche), PhosSTOP Phosphatase Inhibitor Cocktail (Roche) and benzonase nuclease (Sigma–Aldrich) for 30 min on ice. Whole cell lysates were stored at −80°C until protein quantification, SDS–PAGE and Western blots were performed. Briefly, whole cell lysates were thawed on ice then quantified using the BCA Protein Assay with bicinchoninic acid solution (Sigma–Aldrich) and copper sulfate solution (Sigma–Aldrich). NuPAGE LDS Sample Buffer (Invitrogen) containing TCEP (Sigma–Aldrich) was added to the whole cell lysates to obtain 20 µg protein in 20 µl total volume per sample. Samples were heated at 95°C for 10 minutes and 20 µl of each sample was run on NuPAGE 4–12% Bis-Tris 1.0 mm × 12-well Mini Gels (Invitrogen) using NuPAGE MES SDS Running Buffer (Invitrogen) along with the Precision Plus Kaleidoscope Prestained Protein Standard (Bio-Rad). Western blots were performed according to the Western Blotting General Procedure above.

[2] = test system: wild-type MDF cells; assay: FACS cell death assay (PI uptake by flow cytometry) after necroptotic stimulus; type: cell-based, mouse; settings: for inhibition of TSQ-induced necroptosis (PI uptake, flow cytometry): TSQ 24 h, control comparison at concentrations >1 µM
Description: In the first protocol, WT MDF cells were seeded at 1.0 × 10^5 cells per well in 24-well plates and allowed to settle for 4 h at 37°C 10% CO2. […] After 24 h, cells were harvested, stained with 1 µg/ml propidium iodide (PI; Sigma–Aldrich) and PI positive cells were quantified by flow cytometry on a BD FACSCalibur instrument. In the second protocol, WT MDF cells were seeded at 5.0 × 10^4 cells in 500 µl per well in 24-well plates (Falcon, cat #353047) and allowed to settle for 24 h at 37°C 10% CO2. […] For all compounds and reagents, 0.5 µl of 1000× stocks were used. Cells were harvested, stained with 2 µg/ml propidium iodide (PI; Sigma–Aldrich) and PI positive cells were quantified by flow cytometry on a BD FACSCalibur instrument.

[3] = test system: U937 cells; assay: IncuCyte cell death assay (PI uptake, live cell imaging); settings: for IC50: Homo sapiens, read-out: IC50 inhibition of necroptotic cell death; for toxicity in the absence of TSQ or TSI: unstimulated, up to 40 µM
Description: IncuCyte cell death assays were performed as previously described [19, 23, 26]. Briefly, U937 cells were seeded at 3.5 × 10^4 cells per well in 96-well plates. […] Cell death was monitored over the 24 or 48 h period by SPY505 (live cells; Spirochrome) and propidium iodide (PI; dead cells; Sigma–Aldrich) uptake using live cell imaging on an IncuCyte SX5 (Sartorius) instrument using the 10× objective and phase contrast, green and orange channel settings with scans every hour. The percentage of PI positive cells over time was quantified using the IncuCyte software. End point data were fit to the inhibitor vs response (three parameters) model of non-linear regression to obtain IC50 values using GraphPad Prism.

[4] = test system: TNF-induced sterile sepsis; design: method as in earlier work; settings: mice; ref 56 (Yu et al.); cited from earlier work
[5] = test system: MDF cells expressing the MLKL Q343A mutant; assay: Phenotypic screen: MLKL Q343A-induced cell death, CellTiter-Glo cell viability; type: cell-based, mouse; settings: 1 µM; wild-type or Mlkl−/− MDF cells; doxycycline 1 µg/ml
Description: The phenotypic screen was performed as previously described. Briefly, 5632 compounds from an in-house (WEHI) small molecule library and 40 well-characterised kinase inhibitors were screened against MDF cells expressing the MLKL Q343A mutant. For the 5632 compounds from the WEHI library, 384-well white clear-bottom plates (Corning) containing the compounds (10 µM) were prepared at Compounds Australia. WT MDF cells expressing MLKL Q343A were seeded at 2.0 × 10^3 cells per well into the plates using the Nanodrop Nano-Dispensing Liquid Handler (Gilson) and incubated with the compounds for 2 h, prior to the addition of doxycycline (1 µg/ml) to induce expression of the MLKL Q343A protein. After 24 h, cell viability was determined using the CellTiter-Glo Assay (Promega) by measuring luminescence using an EnVision plate reader (PerkinElmer). For the 40 kinase inhibitors, WT and Mlkl^−/− MDF cells expressing MLKL Q343A were seeded at 5.0 × 10^3 cells per well in 96-well plates and allowed to settle for ∼6 h at 37°C 10% CO2. […] After 18 h, cell viability was determined using the CellTiter-Glo Assay (Promega) by measuring luminescence using an EnVision plate reader (PerkinElmer). Raw luminescence data were normalised to the uninduced (no doxycycline) controls (100% cell viability) using GraphPad Prism.

[6] = biological target: T1, human RIPK3 kinase domain (Homo sapiens, UniProt Q9Y572); assay: DiscoverX KINOMEscan competition binding assay (KdELECT); settings: tested up to 30 µM
T1 construct: human MLKL (full-length), RIPK1 (kinase domain) and RIPK3 (kinase domain); purchased DiscoverX KINOMEscan (KdELECT service)
T1 sequence (Q9Y572 21-287 limits assumed): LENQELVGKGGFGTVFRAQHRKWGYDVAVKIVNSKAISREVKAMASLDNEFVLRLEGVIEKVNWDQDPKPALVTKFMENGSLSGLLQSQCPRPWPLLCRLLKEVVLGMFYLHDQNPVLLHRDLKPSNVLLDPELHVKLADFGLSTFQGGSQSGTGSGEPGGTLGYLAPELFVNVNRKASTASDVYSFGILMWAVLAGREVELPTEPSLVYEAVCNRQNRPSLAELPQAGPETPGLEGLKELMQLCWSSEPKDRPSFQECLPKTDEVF

Cc1ccc(F)c(NC(=O)Nc2ccc(-c3cccc4[nH]nc(N)c34)cc2)c1 [ABT-869, N-(4-(3-amino-1H-indazol-4-yl)phenyl)-N'-(2-fluoro-5-methylphenyl)urea]
effect on RIPK1 phosphorylation (phospho-RIPK1 signal, Western blot) [1]: almost completely ablated RIPK1 phosphorylation
inhibition of TSQ-induced necroptosis (PI uptake, flow cytometry) [2]: concentration-dependent inhibition of necroptotic cell death
inhibition of TSZ-induced necroptosis (PI uptake, flow cytometry) ([2]; TSZ 24 h): concentration-dependent inhibition of necroptotic cell death
IC50 ([3]; U-937, 24 h): 22 µM
IC50 ([3]; U-937, 48 h): ~5 µM
toxicity in the absence of TSQ or TSI ([3]; U937 cells): Neither ABT-869 nor WEHI-615 showed any marked toxicity
concentrations at which protection from cell death was observed ([3]; U937 cells, TSQ 48 h): > 1.25 µM
protection from TNF-induced sterile sepsis [4]: confer protection in mice from TNF-induced sterile sepsis
inhibition of necroptosis induced by expression of MLKL Q343A (cell viability, CellTiter-Glo) [5]: attenuated necroptosis

Nc1n[nH]c2cccc(-c3ccc(NC(=O)Nc4ccccc4)cc3)c12 [WEHI-615]
effect on RIPK1 phosphorylation (phospho-RIPK1 signal, Western blot) [1]: only partially reduced the phospho-RIPK1 signal
inhibition of TSQ-induced necroptosis (PI uptake, flow cytometry) [2]: less potent inhibition of TSQ-induced necroptosis than ABT-869
Kd [6]: > 30 µM
IC50 ([3]; U-937, 48 h): 35 µM
toxicity in the absence of TSQ or TSI ([3]; U937 cells): Neither ABT-869 nor WEHI-615 showed any marked toxicity
attenuation of TSI-stimulated cell death ([3]; U937 cells, TSI 24 h, titration from 40 µM): only showed marked attenuation of TSI-stimulated cell death at the highest concentration tested (40 µM)
